Test results as given in patent publication US12459951B2, “Compounds that interact with RAS superfamily proteins for treatment of cancers, inflammatory diseases, rasopathies, and fibrotic disease” (SHY Therapeutics, LLC, priority 2022, dated 2025).

Assays:
Rac-1 = biological target: T1, Rac-1 (Homo sapiens, UniProt P63000); experiment: Ras GTP Binding Domain Inhibition Assay (Ras Superfamily Assay); details: read-out: Rac-1: % inh.
T1 construct: made in house
Description: (§1) Biological Example 3: Ras GTP Binding Domain Inhibition Assay
(§2) The assays described in Example 3 are collectively referred to as the “Ras Superfamily Assay” throughout this application.
(§3) A Ras Superfamily Activity Assay (as disclosed in International Application No. PCT/US2018/038613, filed Jun. 20, 2018, which is incorporated by reference in its entirety) was used as a specific assay to evaluate compounds against the following for the following Ras Superfamily proteins: KRas wild type, KRas Q61H mutant, KRas G12C mutant, KRas G12D mutant, Rac-1, and Rho-A.
(§4) • 25 mM Tris-HCl, pH 7.4 • 27 mM KCl • 137 mM NaCl • 1 mM MgCl2 • 1 mM DTT Buffer-II: • 50 mM Tris-HCl, pH 7.0 • 1 mM MgCl2 • 1 mM DTT
(§5) The small GTPases proteins: KRas wild type. KRas Q61H mutant, KRas G12C mutant, KRas G12D mutants, Rac-1, and Rho-A were expressed as His-tagged proteins. In addition, the Guanosine nucleotide Exchange Factor (GEF) Sos protein (residues 556-1049) was expressed as a His-tagged protein. In cells, the guanine nucleotide exchange factor Sos protein promotes activation of Ras proteins by stimulating an exchange of GDP for GTP. The inclusion of Sos to the Ras GTP binding domain inhibition assay may be considered as an alternative representation of physiological cellular conditions for evaluating the inhibitory activity of some of the tested small molecules.
(§6) For the assay, all purified small GTPases proteins were diluted in Buffer-I or Buffer-II to a final concentration of 10-30 μg/mL. 200 μL of each diluted protein was added to a nickel-coated 96-well plate and incubated overnight at 4° C. Then the protein solution was discarded and 200 μL of Buffer-I or Buffer-II was added to each well in the presence of 1% DMSO. Compounds to be tested were added to the protein-coated wells at final concentration of 20 μM, and incubated for 3 hours at room temperature with and without 10-30 μg/mL of Sos added to the final hour of the incubation. When performing IC50 measurements a serial dilution of all tested concentrations was added. Then Cy3-GTP or Cy5-GTP was added to each well to a final concentration of 100 nM. The labeled GTP was incubated for 45 minutes at room temperature. Following GTP incubation, wells were washed 3× in Buffer-I or Buffer-II and 200 μL of Buffer-I or Buffer-II was added to each well. Following washes, the amount of bound labeled-GTP was measured using a SpectraMax M3 (Molecular Devices).

KRas G12D mutant = experiment: as above; details: 20 μM compound; for KRas G12D mutant + SOS: % inh.: with SOS; for KRas G12D mutant: % inh.: without SOS
Description: as §1, §2, §3, §4, §5, §6

KRas wild type = experiment: as above; details: 20 μM compound; for KRas wild type + SOS: % inh.: with SOS; for KRas wild type: % inh.: without SOS
Description: as §1, §2, §3, §4, §5, §6

Akt phosphorylation = experiment: Akt Phosphorylation Assay (western blot), Panc-1; format: cell-based, human; details: at 10 μM, * = activation
Method: Protocol for Western Akt Cell-Based Phosphorylation Assay
This assay is referred to as the “Akt Phosphorylation Assay” throughout this application.
Human tumor-derived pancreatic cancer cell line Panc-1 (expressing KRas G12D mutant) was purchased from American Type Culture Collection and grown in complete DMEM-High Glucose supplemented with penicillin (100 U/mL), streptomycin (100 μg/mL), and 10% heat-inactivated FBS at 37° C. in a humidified incubator with 5% CO2.
Method 1: Cells were plated at 350000 cells/well density in a 12-well plate, allowed 3 hours to adhere to the plate, then starved in the appropriate medium in the presence of 0.5% FBS overnight. The small molecules to be tested were added to the cells in the final concentration of 10 μM in the presence of 0.3% DMSO for 6 hours incubation at 37° C. Next, cells were stimulated with 1.5 ng/ml EGF for 15 minutes then cells were lysed with lysis buffer containing 1% Triton X-100, EDTA, and Halt™ Protease & Phosphatase Inhibitor Cocktail (Thermo Scientific). Protein concentration was assessed by BCA protein assay (Thermo Scientific). Phosphorylation level of Akt was determined by western blot.
Method 2: Cells were plated at 350000 cells/well density in a 12-well plate in 10% FBS. The next day small molecules to be tested were added to the cells in the final concentration of 10 μM in the presence of 0.3% DMSO for 6 hours incubation at 37° C. For IC50 value determination, serial dilutions of compounds were added to cells under the same conditions. Next, cells were lysed with lysis buffer containing 1% Triton X-100, EDTA, and Halt™ Protease & Phosphatase Inhibitor Cocktail (Thermo Scientific). Protein concentration was assessed by BCA protein assay (Thermo Scientific). Phosphorylation level of Akt was determined by western blot.
Western blot protocol: Equal amounts of protein (15-50 μg) were separated by SDS-PAGE and transferred to nitrocellulose membranes (Invitrogen by Thermo Fisher Scientific). The membrane was stained with Ponceau S Stain (Boston BioProducts) to verify uniform protein loading. Membranes were blocked with 10% milk and phosphorylation levels of Akt were assessed by incubating overnight at 4° C. with anti-phospho-Akt (Ser473) antibody (Cell Signaling) followed by HRP-conjugated secondary antibody (Jackson Immunoresearch, West Grove, PA). Bands were incubated in Amersham ECL Prime Western Blotting Detection Reagent (GE Healthcare) and visualized using the ChemiDoc MP imaging system (Bio-Rad).

Row | inhibition at 20 µM (Rac-1) [%] | KRas G12D mutant + SOS: % inh. (KRas G12D mutant) | KRas G12D mutant: % inh. (KRas G12D mutant) | KRas wild type + SOS: % inh. (KRas wild type) | KRas wild type: % inh. (KRas wild type) | Structure (SMILES) | % inh of Akt phosphorylation in Panc-1 (Akt phosphorylation)
1 | 76 to 100 | D (D = 76-100% inhibition) | D (D = 76-100% inhibition) | D (D = 76-100% inhibition) | D (D = 76-100% inhibition) | Cc1c(-c2ccn(C(C)C)n2)cn2nc(-c3nccn3C)nc(Nc3nccc(OCCN(C)C)n3)c12 [Compound 96, N-(4-(2-(Dimethylamino)ethoxy)pyrimidin-2-yl)-6-(1-isopropyl-1H-pyrazol-3-yl)-5-methyl-2-(1-methyl-1H-imidazol-2-yl)pyrrolo[2,1-f][1,2,4]triazin-4-amine] | D* (85-100% activation)
2 | 76 to 100 | D (D = 76-100% inhibition) | D (D = 76-100% inhibition) | D (D = 76-100% inhibition) | D (D = 76-100% inhibition) | Cc1c(-c2ccn(C)n2)cn2nc(-c3nccn3C)nc(Nc3cc4n(n3)CCC4)c12 [Compound 100, N-(5,6-Dihydro-4H-pyrrolo[1,2-b]pyrazol-2-yl)-5-methyl-2-(1-methyl-1H-imidazol-2-yl)-6-(1-methyl-1H-pyrazol-3-yl)pyrrolo[2,1-f][1,2,4]triazin-4-amine] | D* (85-100% activation)
3 | 76 to 100 | C (C = 50-75% inhibition) | D (D = 76-100% inhibition) | B (B = 26-49% inhibition) | D (D = 76-100% inhibition) | Cc1c(-c2ccn(C)n2)cn2nc(-c3nccn3C)nc(Nc3cc(OCCO)ncn3)c12 [Compound 101, 2-((6-((5-Methyl-2-(1-methyl-1H-imidazol-2-yl)-6-(1-methyl-1H-pyrazol-3-yl)pyrrolo[2,1-f][1,2,4]triazin-4-yl)amino)pyrimidin-4-yl)oxy) ethan-1-ol] | D* (85-100% activation)
4 | 76 to 100 | D (D = 76-100% inhibition) | D (D = 76-100% inhibition) | D (D = 76-100% inhibition) | D (D = 76-100% inhibition) | COc1ccnc(Nc2nc(-c3nccn3C)nn3cc(-c4ccn(C)n4)c(C)c23)c1 [Compound 102, N-(4-Methoxypyridin-2-yl)-5-methyl-2-(1-methyl-1H-imidazol-2-yl)-6-(1-methyl-1H-pyrazol-3-yl)pyrrolo[2,1-f][1,2,4]triazin-4-amine] | D* (85-100% activation)

The next lines start with the compound.

Row | Structure (SMILES) | inhibition at 20 µM (Rac-1) [%] | KRas G12D mutant + SOS: % inh. (KRas G12D mutant) | KRas G12D mutant: % inh. (KRas G12D mutant) | KRas wild type + SOS: % inh. (KRas wild type) | KRas wild type: % inh. (KRas wild type) | % inh of Akt phosphorylation in Panc-1 (Akt phosphorylation)
5 | Cc1c(-c2ccn(C(C)C)n2)cn2nc(-c3nccn3C)nc(Nc3nccn3C)c12 [Compound 93, 6-(1-Isopropyl-1H-pyrazol-3-yl)-5-methyl-N,2-bis(1-methyl-1H-imidazol-2-yl)pyrrolo[2,1-f][1,2,4]triazin-4-amine] | 76 to 100 | D (D = 76-100% inhibition) | D (D = 76-100% inhibition) | D (D = 76-100% inhibition) | D (D = 76-100% inhibition) | D* (85-100% activation)
6 | COc1cc(Nc2nc(-c3nccn3C)nn3cc(-c4ccccn4)c(C)c23)ncn1 [Compound 94, N-(6-Methoxypyrimidin-4-yl)-5-methyl-2-(1-methyl-1H-imidazol-2-yl)-6-(pyridin-2-yl)pyrrolo[2,1-f][1,2,4]triazin-4-amine] | 50 to 75 | B (B = 26-49% inhibition) | C (C = 50-75% inhibition) | B (B = 26-49% inhibition) | C (C = 50-75% inhibition) | D* (85-100% activation)
7 | COc1ccnc(Nc2nc(-c3nccn3C)nn3cc(-c4ccn(C(F)F)n4)c(C)c23)n1 [Compound 95, 6-(1-(Difluoromethyl)-1H-pyrazol-3-yl)-N-(4-methoxypyrimidin-2-yl)-5-methyl-2-(1-methyl-1H-imidazol-2-yl)pyrrolo[2,1-f][1,2,4]triazin-4-amine] | 76 to 100 | C (C = 50-75% inhibition) | C (C = 50-75% inhibition) | B (B = 26-49% inhibition) | C (C = 50-75% inhibition) | D* (85-100% activation)
8 | Cc1c(-c2ccn(C(C)C)n2)cn2nc(-c3nccn3C)nc(Nc3cc(OCCO)ncn3)c12 [Compound 97, 2-((6-((6-(1-Isopropyl-1H-pyrazol-3-yl)-5-methyl-2-(1-methyl-1H-imidazol-2-yl)pyrrolo[2,1-f][1,2,4]triazin-4-yl)amino)pyrimidin-4-yl)oxy) ethan-1-ol] | 76 to 100 | D (D = 76-100% inhibition) | D (D = 76-100% inhibition) | D (D = 76-100% inhibition) | D (D = 76-100% inhibition) | D* (85-100% activation)
9 | COc1cc(Nc2nc(-c3nccn3C)nn3cc(-c4ccn(C(F)F)n4)c(C)c23)ncn1 [Compound 98, 6-(1-(Difluoromethyl)-1H-pyrazol-3-yl)-N-(6-methoxypyrimidin-4-yl)-5-methyl-2-(1-methyl-1H-imidazol-2-yl)pyrrolo[2,1-f][1,2,4]triazin-4-amine] | 50 to 75 | C (C = 50-75% inhibition) | C (C = 50-75% inhibition) | A (A = 1-25% inhibition) | C (C = 50-75% inhibition) | D* (85-100% activation)
10 | Cc1c(-c2ccn(C)n2)cn2nc(-c3nccn3C)nc(Cl)c12 [Compound 99, 4-Chloro-5-methyl-2-(1-methyl-1H-imidazol-2-yl)-6-(1-methyl-1H-pyrazol-3-yl)pyrrolo[2,1-f][1,2,4]triazine] | 50 to 75 | B (B = 26-49% inhibition) | B (B = 26-49% inhibition) | B (B = 26-49% inhibition) | C (C = 50-75% inhibition) | A* (1-25% activation)
